Experimental findings from patent publication US8017786B2, “Substituted β-phenyl-α-hydroxy-propanoic acid, synthesis method and use thereof” (Northwest University, priority 2006, dated 2011) are described below.

What all share (assay type): in vivo, rat
In assay [1] the test system is creatine kinase isoenzyme (CK-MB). Description: Serum CK-MB activity in rats with myocardial ischemia. Particulars: for CK-MB: serum, 24 h after ligation. The protocol: At 0.5 h after the rats of these groups were administered intragastrically, the standard II lead electrocardiogram (before modeling) was recorded, and the height of ST-T segment was measured. The rats of sham operation group were then subjected to coronary artery braid without ligation, and the rats of other groups were subjected to coronary artery ligation in accordance with the following method to establish cute myocardial ischemia models. The rats were subjected to etherization, fixed at supine position, and their normal electrocardiograms (before modeling) were recorded. The skin of left thorax was incised under aseptic conditions, the 4th intercostal muscles were isolated in blunt way, the heart was extruded by light pressure to the right thorax, the left anterior descending coronary artery was ligated at a position 2˜3 mm departing from the left coronary artery origin and between the pulmonary conus and the left auricle of heart, then the heart was sent back to thorax cavity immediately and sutured the incision. Penicillin was smeared topically for the prevention of infections. After operation, the electrocardiogram of postischemia was recorded immediately (at 0 min after modeling), and the height of ST-T segment was measured.

The test system of the next assay is PPARγ. Description: Immunohistochemistry protein expression in I/R myocardial tissue: PPARγ. Particulars: 5 days, ischemia 30 min, reperfusion 2 h. The protocol:
52 SD rats having a body weight of 220±20 g were randomly divided into model control group, salviannic acid injection group (in 1 mL/kg), and group of bornyl β-(3,4-dihydroxylphenyl)-α-hydroxylpropionate ester at a small, middle and large dose (ip 5, 15, 35 mg/kg). The rats of the normal group and the model control group were ip administered with equal-volume of physiologic saline. The rats of all groups were administered for consecutive 5 days. When the rats were administered for the last time, they were simultaneously anesthetized with 1.5% pentobarbital sodium (ip 45 mg/kg), then a catheter was inserted into the right carotid artery, and connected via a transducer to an eight-channeled physiological recorder. Tracheal cannula was performed, and the ventilation rate was maintained at 60 times/min. The chest was opened, a 6/0 suture was used to form a loop at a site 1˜2 mm from the root of the anterior descending coronary artery, and a plastic pipe was introduced through the loop, then the loop was tightened up. The change of electrocardiogram was observed. An increase or decrease of ST indicated the success of ligation. The color of the myocardial tissue below the ligation suture became darker. 30 minutes later, the plastic pipe was pulled out to allow coronary artery blood flowing again and cause hyperemia of local tissue during reperfusion. For the groups subjected to ischemia for 30 min and reperfusion for 30 min, the myocardial infarction areas were recorded before the test, after ischemia for 1 min and 30 min, and after reperfusion for 30 min; for the groups subjected to ischemia for 30 min and reperfusion for 2 h, cardiac tissue samples were taken and fixed using 10% formalin, embedded with paraffin, serially sliced into sections with a thickness of 4 μm, and separately subjected to immunohistochemistry tests; the rats of the sham operation group were subjected only to the introduction of suture but their coronary arteries were not ligated.
Standard immunohistochemistry ABC and SP methods were employed for staining. Bax: anti-rabbit polyclonal antibody (Santa CruzBio. Inc.) at a dilution of 1:200; […]: anti-rabbit polyclonal antibody (TBD Tianjin Biotechnological Center). At a dilution of […]; caspase-3: anti-rabbit polyclonal antibody (Normarkers Fromont, Calif.), at a dilution of 1:200; MMP-2: anti-murine monoclonal antibody (NormarkersFromont, Calif.) at a dilution of 1:200; PPARγ: anti-caprine polyclonal antibody (Santa Cruz Bio. Inc.), at a dilution of 1:500. The specific procedures were performed in accordance with the instructions of the ABC and SP kits, DAB was used for color development, and neutral resin was used for mounting. PBS was used instead of the first antibody as a negative control. […]

Assay [2] concerns rats with middle cerebral artery occlusion. As to the kind of experiment: Cerebral microcirculatory blood flow in rats with middle cerebral artery occlusion. The protocol: 60 SD rats with a body weight of 220±20 g were randomly divided into normal control group, model control group, salvianic acid injection group (ip. 1 mL/kg), and group of bornyl β-(3,4-dihydroxylphenyl)-α-hydroxylpropionate ester at a small, middle and large dose respectively (ip. 5, 15, and 35 mg/kg). The rats of normal group and model group were administered with equal-volume of physiologic saline by ip. The rats were anesthetized by intraperitoneal injection of 1% pentobarbital sodium at an amount of 40 mg/kg, then placed at supine position, head fixed, and cut skin along cervical middle line. Trachea cannula, was inserted into the rats and they were allowed to spontaneous respire. Right common jugular vein and common carotid artery were isolated and a suture was introduced for later use. Animals were fixed on a rat stereotaxic apparatus, a cranial window with a size of 6×8 mm was opened at the right temple with a dental drill, after hemostasis, cerebral dura mater was cut open with scissors to expose cerebral pia mater. The window was covered and sealed with glass and dental cement, and the laser probe of a laser-doppler microcirculatory blood flow meter was fixed on the cranial window. Then the animals were fixed at lateral position, the right common carotid artery was lifted, ligated at the proximal part and carefully cut with scissors, a nylon suture having a diameter of about 0.3 mm was introduced into the artery. The distance between the artery cut and the paropia of the rats was marked before the suture was introduced. […] When the suture arrived at middle cerebral artery, an abrupt decrease of the microcirculatory blood flow would be observed. After the observation of a decrease in the microcirculatory blood flow, the suture was further penetrated by about 1 mm, and the distal end of the cut and the suture in the artery were ligated securely. Spare suture was cut-off. After the end of the test, it was checked whether the nylon suture blocked the initiation site of the middle cerebral artery, and the data of any animal whose artery was not blocked were cancelled. The animals of the control group were not treated. After the cranial window was prepared, the probe of J I2200 type laser-doppler microcirculatory blood flow meter was fixed at the cranial window, and the probe was maintained without displacement and rotation during the whole test. The microcirculatory blood flows before ligation and 5, 15, 30, 45 and 60 min after ligation were recorded, and the data of the animals in the drug-treatment groups were recorded at the same time points. The mean microcirculatory blood flow observed within 1 min at each time point was designated as the microcirculatory blood flow of the respective time point.

Consider `CC1(C)C2CCC1(C)C(OC(=O)C(O)Cc1ccc(O)c(O)c1)C2` (stereo not drawn) [bornyl salvianate ester, bornyl β-(3,4-dihydroxylphenyl)-α-hydroxylpropionate ester], for which the CK-MB in assay [1] (10 mg/kg intragastric) is 1267.0 ± 274.4 U/L; in assay [1] (20 mg/kg intragastric), 1074.1 ± 116.8 U/L; in assay [1] (40 mg/kg intragastric) it was 906.3 ± 99.9 U/L. For the same compound, the “activity of creatine kinase isoenzyme (CK-MB) (in words)” value in assay [1] (all dose groups, 24 h later) was “decreased”. For the same compound, the results for the “PPARγ protein expression, OD value” in the assay on PPARγ (5 mg/kg ip), in the assay with PPARγ (15 mg/kg ip) and in the assay with PPARγ (35 mg/kg ip) were 0.16 ± 0.05, 0.18 ± 0.06 and 0.18 ± 0.10, respectively. Also, the Microcirculatory blood flow amounted to 11.4 ± 5.4 mL in assay [2] (5 mg/kg ip, 5 min after ligation); 12.4 ± 4.6 mL in assay [2] (5 mg/kg ip, 15 min after ligation); 12.9 ± 5.1 mL in assay [2] (5 mg/kg ip, 30 min after ligation); 16.1 ± 4.1 mL in assay [2] (5 mg/kg ip, 45 min after ligation); 16.0 ± 6.9 mL in assay [2] (5 mg/kg ip, 60 min after ligation); 9.4 ± 3.7 mL in assay [2] (15 mg/kg ip, 5 min after ligation). For the same compound, the Microcirculatory blood flow was found to be 12.8 ± 5.6 mL in assay [2] (15 mg/kg ip, 15 min after ligation); 20.7 ± 3.2 mL in assay [2] (15 mg/kg ip, 30 min after ligation); 25.0 ± 5.2 mL in assay [2] (15 mg/kg ip, 45 min after ligation); 24.4 ± 4.8 mL in assay [2] (15 mg/kg ip, 60 min after ligation); 10.8 ± 2.7 mL in assay [2] (35 mg/kg ip, 5 min after ligation); 19.4 ± 5.1 mL in assay [2] (35 mg/kg ip, 15 min after ligation). The Microcirculatory blood flow in assay [2] (35 mg/kg ip, 30 min after ligation) worked out at 32.7 ± 6.2 mL; in assay [2] (35 mg/kg ip, 45 min after ligation), 35.4 ± 8.2 mL; in assay [2] (35 mg/kg ip, 60 min after ligation) it was 35.2 ± 5.8 mL. For the same compound, the “cerebral microcirculatory blood flow (in words)” value in assay [2] (15 mg/kg, 30 minutes after the administration) is “increased slightly”; in assay [2] (35 mg/kg, 15 minutes after the administration), “increased slightly”.
